The NIST ThermoML archive (doi:10.1016/j.jct.2015.05.024)
± gives the expanded uncertainty stated by the source.

Assay: xn = mol fraction of the nth substance listed
Details: 100 kPa, Liquid; for mass density: Vibrating tube method; for speed of sound: Frequency=5 MHz, Pulse-echo method

OCCOCCOCCO [triethylene glycol] + O
Details | mass density [kg/m3] | speed of sound [m/s]
278.15 K, x1 = 0.0107 | 1013.31 ± 0.26 | –
278.15 K, x1 = 0.02047 | 1024.39 ± 0.23 | –
278.15 K, x1 = 0.03972 | 1043.4 ± 0.22 | –
278.15 K, x1 = 0.04979 | 1051.97 ± 0.19 | –
278.15 K, x1 = 0.06996 | 1066.64 ± 0.17 | –
278.15 K, x1 = 0.09424 | 1080.57 ± 0.15 | –
278.15 K, x1 = 0.1481 | 1100.99 ± 0.14 | –
278.15 K, x1 = 0.2006 | 1112.25 ± 0.14 | –
278.15 K, x1 = 0.2502 | 1118.67 ± 0.15 | –
278.15 K, x1 = 0.2988 | 1122.73 ± 0.15 | –
278.15 K, x1 = 0.3492 | 1125.61 ± 0.16 | –
278.15 K, x1 = 0.3925 | 1127.4 ± 0.17 | –
278.15 K, x1 = 0.4502 | 1129.18 ± 0.18 | –
278.15 K, x1 = 0.4877 | 1130.08 ± 0.18 | –
278.15 K, x1 = 0.5004 | 1130.35 ± 0.19 | –
278.15 K, x1 = 0.5739 | 1131.64 ± 0.2 | –
278.15 K, x1 = 0.58 | 1131.73 ± 0.2 | –
278.15 K, x1 = 0.6465 | 1132.58 ± 0.22 | –
278.15 K, x1 = 0.651 | 1132.63 ± 0.22 | –
278.15 K, x1 = 0.7008 | 1133.14 ± 0.23 | –
278.15 K, x1 = 0.7471 | 1133.54 ± 0.24 | –
278.15 K, x1 = 0.7677 | 1133.7 ± 0.25 | –
278.15 K, x1 = 0.82 | 1134.08 ± 0.27 | –
278.15 K, x1 = 0.8623 | 1134.35 ± 0.28 | –
278.15 K, x1 = 0.8792 | 1134.45 ± 0.29 | –
278.15 K, x1 = 0.8975 | 1134.56 ± 0.3 | –
278.15 K, x1 = 0.9203 | 1134.69 ± 0.31 | –
278.15 K, x1 = 0.9514 | 1134.86 ± 0.32 | –
278.15 K, x1 = 0.9692 | 1134.96 ± 0.33 | –
278.15 K, x1 = 1 | 1135.14 ± 0.34 | –
283.15 K, x1 = 0.0107 | 1012.65 ± 0.26 | –
283.15 K, x1 = 0.02047 | 1023.4 ± 0.23 | –
283.15 K, x1 = 0.03972 | 1041.83 ± 0.22 | –
283.15 K, x1 = 0.04979 | 1050.13 ± 0.19 | –
283.15 K, x1 = 0.06996 | 1064.35 ± 0.17 | –
283.15 K, x1 = 0.09424 | 1077.85 ± 0.15 | –
283.15 K, x1 = 0.1481 | 1097.71 ± 0.14 | –
283.15 K, x1 = 0.2006 | 1108.7 ± 0.14 | –
283.15 K, x1 = 0.2502 | 1115 ± 0.15 | –
283.15 K, x1 = 0.2988 | 1119.01 ± 0.15 | –
283.15 K, x1 = 0.3492 | 1121.86 ± 0.16 | –
283.15 K, x1 = 0.3925 | 1123.64 ± 0.17 | –
283.15 K, x1 = 0.4502 | 1125.41 ± 0.18 | –
283.15 K, x1 = 0.4877 | 1126.3 ± 0.18 | –
283.15 K, x1 = 0.5004 | 1126.57 ± 0.18 | –
283.15 K, x1 = 0.5739 | 1127.85 ± 0.2 | –
283.15 K, x1 = 0.58 | 1127.94 ± 0.2 | –
283.15 K, x1 = 0.6465 | 1128.79 ± 0.22 | –
283.15 K, x1 = 0.651 | 1128.84 ± 0.22 | –
283.15 K, x1 = 0.7008 | 1129.34 ± 0.23 | –
283.15 K, x1 = 0.7471 | 1129.73 ± 0.24 | –
283.15 K, x1 = 0.7677 | 1129.89 ± 0.25 | –
283.15 K, x1 = 0.82 | 1130.26 ± 0.27 | –
283.15 K, x1 = 0.8623 | 1130.52 ± 0.28 | –
283.15 K, x1 = 0.8792 | 1130.62 ± 0.29 | –
283.15 K, x1 = 0.8975 | 1130.73 ± 0.29 | –
283.15 K, x1 = 0.9203 | 1130.86 ± 0.3 | –
283.15 K, x1 = 0.9514 | 1131.03 ± 0.32 | –
283.15 K, x1 = 0.9692 | 1131.12 ± 0.32 | –
283.15 K, x1 = 1 | 1131.29 ± 0.34 | –
288.15 K, x1 = 0.000601 | – | 1469.7 ± 1.4
288.15 K, x1 = 0.001928 | – | 1476.6 ± 1.4
288.15 K, x1 = 0.00461 | – | 1490.1 ± 1.4
288.15 K, x1 = 0.008532 | – | 1508.9 ± 1.4
288.15 K, x1 = 0.0107 | 1011.72 ± 0.25 | –
288.15 K, x1 = 0.01366 | – | 1532 ± 1.3
288.15 K, x1 = 0.01989 | – | 1557.7 ± 1.3
288.15 K, x1 = 0.02047 | 1022.17 ± 0.22 | –
288.15 K, x1 = 0.02548 | – | 1578.7 ± 1.2
288.15 K, x1 = 0.03449 | – | 1609.1 ± 1.2
288.15 K, x1 = 0.03972 | 1040.07 ± 0.21 | –
288.15 K, x1 = 0.04517 | – | 1639.9 ± 1.2
288.15 K, x1 = 0.04979 | 1048.13 ± 0.18 | –
288.15 K, x1 = 0.05131 | – | 1655.2 ± 1.2
288.15 K, x1 = 0.05713 | – | 1668.3 ± 1.1
288.15 K, x1 = 0.06261 | – | 1679.5 ± 1.1
288.15 K, x1 = 0.0692 | – | 1691.5 ± 1.1
288.15 K, x1 = 0.06996 | 1061.93 ± 0.17 | –
288.15 K, x1 = 0.07424 | – | 1699.8 ± 1.1
288.15 K, x1 = 0.08016 | – | 1708.5 ± 1.1
288.15 K, x1 = 0.08433 | – | 1714.1 ± 1.1
288.15 K, x1 = 0.08832 | – | 1719 ± 1.1
288.15 K, x1 = 0.09298 | – | 1724.2 ± 1.1
288.15 K, x1 = 0.09424 | 1075.05 ± 0.15 | –
288.15 K, x1 = 0.09657 | – | 1727.8 ± 1.1
288.15 K, x1 = 0.1007 | – | 1731.7 ± 1.1
288.15 K, x1 = 0.1021 | – | 1732.9 ± 1.1
288.15 K, x1 = 0.1045 | – | 1734.9 ± 1.1
288.15 K, x1 = 0.1091 | – | 1738.4 ± 1.1
288.15 K, x1 = 0.1208 | – | 1745.7 ± 1.1
288.15 K, x1 = 0.1237 | – | 1747.2 ± 1.1
288.15 K, x1 = 0.1281 | – | 1749.1 ± 1.1
288.15 K, x1 = 0.1302 | – | 1750 ± 1.1
288.15 K, x1 = 0.133 | – | 1751 ± 1.1
288.15 K, x1 = 0.1394 | – | 1753 ± 1.1
288.15 K, x1 = 0.1441 | – | 1754.2 ± 1.1
288.15 K, x1 = 0.1474 | – | 1754.8 ± 1.1
288.15 K, x1 = 0.1481 | 1094.39 ± 0.14 | –
288.15 K, x1 = 0.1578 | – | 1756.3 ± 1.1
288.15 K, x1 = 0.1678 | – | 1756.8 ± 1.1
288.15 K, x1 = 0.1774 | – | 1756.7 ± 1.1
288.15 K, x1 = 0.1904 | – | 1755.7 ± 1.1
288.15 K, x1 = 0.2006 | 1105.14 ± 0.14 | –
288.15 K, x1 = 0.2055 | – | 1753.5 ± 1.1
288.15 K, x1 = 0.2329 | – | 1748 ± 1.1
288.15 K, x1 = 0.2502 | 1111.33 ± 0.15 | –
288.15 K, x1 = 0.2559 | – | 1742.5 ± 1.1
288.15 K, x1 = 0.2967 | – | 1731.9 ± 1.2
288.15 K, x1 = 0.2988 | 1115.27 ± 0.15 | –
288.15 K, x1 = 0.3235 | – | 1725.1 ± 1.2
288.15 K, x1 = 0.3492 | 1118.09 ± 0.16 | –
288.15 K, x1 = 0.3699 | – | 1714 ± 1.2
288.15 K, x1 = 0.3925 | 1119.86 ± 0.17 | –
288.15 K, x1 = 0.4089 | – | 1705.2 ± 1.2
288.15 K, x1 = 0.4502 | 1121.62 ± 0.17 | –
288.15 K, x1 = 0.4877 | 1122.51 ± 0.18 | –
288.15 K, x1 = 0.5004 | 1122.77 ± 0.18 | –
288.15 K, x1 = 0.5029 | – | 1686.5 ± 1.2
288.15 K, x1 = 0.5739 | 1124.05 ± 0.2 | –
288.15 K, x1 = 0.58 | 1124.13 ± 0.2 | –
288.15 K, x1 = 0.6337 | – | 1667 ± 1.3
288.15 K, x1 = 0.6465 | 1124.97 ± 0.21 | –
288.15 K, x1 = 0.651 | 1125.02 ± 0.22 | –
288.15 K, x1 = 0.7008 | 1125.51 ± 0.23 | –
288.15 K, x1 = 0.745 | – | 1657.9 ± 1.3
288.15 K, x1 = 0.7471 | 1125.9 ± 0.24 | –
288.15 K, x1 = 0.7677 | 1126.06 ± 0.25 | –
288.15 K, x1 = 0.82 | 1126.42 ± 0.26 | –
288.15 K, x1 = 0.8623 | 1126.68 ± 0.28 | –
288.15 K, x1 = 0.8792 | 1126.78 ± 0.28 | –
288.15 K, x1 = 0.8795 | – | 1649.6 ± 1.4
288.15 K, x1 = 0.8975 | 1126.88 ± 0.29 | –
288.15 K, x1 = 0.9203 | 1127.01 ± 0.3 | –
288.15 K, x1 = 0.9514 | 1127.17 ± 0.31 | –
288.15 K, x1 = 0.9612 | – | 1645.9 ± 1.4
288.15 K, x1 = 0.9692 | 1127.27 ± 0.32 | –
288.15 K, x1 = 1 | 1127.43 ± 0.33 | 1643.9 ± 1.4
293.15 K, x1 = 0.000681 | – | 1485.6 ± 1.4
293.15 K, x1 = 0.002463 | – | 1494 ± 1.4
293.15 K, x1 = 0.005001 | – | 1505.7 ± 1.3
293.15 K, x1 = 0.007787 | – | 1518 ± 1.3
293.15 K, x1 = 0.01463 | – | 1546.1 ± 1.3
293.15 K, x1 = 0.02045 | – | 1567.9 ± 1.2
293.15 K, x1 = 0.0276 | – | 1592.1 ± 1.2
293.15 K, x1 = 0.03276 | – | 1608 ± 1.2
293.15 K, x1 = 0.0418 | – | 1632.7 ± 1.2
293.15 K, x1 = 0.04898 | – | 1649.9 ± 1.1
293.15 K, x1 = 0.05561 | – | 1664 ± 1.1
293.15 K, x1 = 0.06315 | – | 1678 ± 1.1
293.15 K, x1 = 0.0678 | – | 1685.8 ± 1.1
293.15 K, x1 = 0.0736 | – | 1694.6 ± 1.1
293.15 K, x1 = 0.08161 | – | 1705.1 ± 1.1
293.15 K, x1 = 0.08886 | – | 1713.2 ± 1.1
293.15 K, x1 = 0.09701 | – | 1721 ± 1.1
293.15 K, x1 = 0.1043 | – | 1726.7 ± 1.1
293.15 K, x1 = 0.1091 | – | 1730 ± 1.1
293.15 K, x1 = 0.1142 | – | 1733 ± 1.1
293.15 K, x1 = 0.12 | – | 1735.9 ± 1.1
293.15 K, x1 = 0.1325 | – | 1740.6 ± 1.1
293.15 K, x1 = 0.1374 | – | 1741.9 ± 1.1
293.15 K, x1 = 0.1445 | – | 1743.3 ± 1.1
